Tested on: Plasmodium berghei
Assay: Luciferase/luciferin-expressing antifolate-resistant parasites were used to infect a culture of HepG2 cells that were pre-incubated with compounds. Infected hepatocytes emit light due to the luciferase reaction. Assay results are presented as the percent inhibition of light emission compared to control. […]
Type: functional
Conditions: sporozoite; for IC90: read-out: LUCIFERASE INFECTION ASSAY - IC90
[1] = PBLUC_HILL_SLOPE 14.7, PBLUC_R_SQUARED 0.767, read-out: LUCIFERASE INFECTION ASSAY - IC50

CCOC(=O)c1cc(-c2csc(Nc3c(C)cc(C)cc3C)n2)on1
IC50 (PBLUC_HILL_SLOPE 14.6, PBLUC_R_SQUARED 0.157, read-out: LUCIFERASE INFECTION ASSAY - IC50): 9.07 µM
IC90: > 9.23 µM

COc1cc(OC)cc(C(=O)NC(=S)N(Cc2ccccc2)C(C)C)c1
IC50 (PBLUC_HILL_SLOPE 14.1, PBLUC_R_SQUARED 0.0494, read-out: LUCIFERASE INFECTION ASSAY - IC50): 8.89 µM
IC90: > 10 µM

CCN(c1ccccc1)S(=O)(=O)c1cc(NC(=O)Nc2ccccc2C#N)ccc1Cl
IC50 (PBLUC_HILL_SLOPE 14.4, PBLUC_R_SQUARED 0.0813, read-out: LUCIFERASE INFECTION ASSAY - IC50): > 10 µM
IC90: > 10 µM

Cc1ccc(NC(=S)N/N=C2\C(=O)Nc3ccc([N+](=O)[O-])cc32)cc1
IC50 (PBLUC_HILL_SLOPE 14.8, PBLUC_R_SQUARED 0.511, read-out: LUCIFERASE INFECTION ASSAY - IC50): 8.89 µM
IC90: > 10 µM

CCOc1ccc(-n2c(C)cc(/C=N/Nc3nc(C)cc(O)n3)c2C)cc1
IC50 (PBLUC_HILL_SLOPE 14.4, PBLUC_R_SQUARED 0.318, read-out: LUCIFERASE INFECTION ASSAY - IC50): 9.96 µM
IC90: > 10 µM

FC(F)(F)Oc1cccc(-c2cnc3cnc(-c4cccnc4)cn23)c1
IC50 (PBLUC_HILL_SLOPE 14.8, PBLUC_R_SQUARED 0.205, read-out: LUCIFERASE INFECTION ASSAY - IC50): 8.62 µM
IC90: > 9.26 µM

NC(Cc1ccc(F)cc1)c1csc(Nc2ccc(-c3ccccc3)nn2)n1 (configuration not stated)
IC50 (PBLUC_HILL_SLOPE 14.8, PBLUC_R_SQUARED 0.059, read-out: LUCIFERASE INFECTION ASSAY - IC50): 8.32 µM
IC90: > 8.43 µM

CCCn1c(NC(=O)c2cc(-c3cccs3)nc3ccccc23)nc2ccccc21
IC50 [1]: 9.26 µM
IC90: > 10 µM

CC1CC(C)CN(c2nc3c(c(=O)[nH]c(=O)n3C)n2Cc2ccccc2F)C1 (configuration not stated)
IC50 (PBLUC_HILL_SLOPE 14.3, PBLUC_R_SQUARED 0.575, read-out: LUCIFERASE INFECTION ASSAY - IC50): 8.19 µM
IC90: > 8.56 µM

COC(=O)c1ccc(-c2cnc3ccc(NCc4cccc(Cl)c4)nn23)cc1
IC50 (PBLUC_HILL_SLOPE 14.1, PBLUC_R_SQUARED 0.0198, read-out: LUCIFERASE INFECTION ASSAY - IC50): 7.46 µM
IC90: > 8.4 µM

O=C(c1ccco1)N1CCc2nc(NCc3cccc(Cl)c3)ncc2C1
IC50 (PBLUC_HILL_SLOPE 14.7, PBLUC_R_SQUARED 0.24, read-out: LUCIFERASE INFECTION ASSAY - IC50): 7.63 µM
IC90: 8.86 µM

COc1cccc(C(=O)c2c(-c3ccco3)c3c4n(c(-c5ccc(Cl)cc5)cn24)CCCC3)c1
IC50 (PBLUC_HILL_SLOPE 14.1, PBLUC_R_SQUARED 0.641, read-out: LUCIFERASE INFECTION ASSAY - IC50): 9.18 µM
IC90: > 10 µM

CC(C)(C)C(=O)CSc1nnc(Nc2ccc(Oc3ccccc3)cc2)s1
IC50 (PBLUC_HILL_SLOPE 14.1, PBLUC_R_SQUARED 0.105, read-out: LUCIFERASE INFECTION ASSAY - IC50): 9.89 µM
IC90: > 10 µM

N#Cc1c(F)ccc(NC(=O)Nc2ccc(Cl)cc2)c1F
IC50 (PBLUC_HILL_SLOPE 14.7, PBLUC_R_SQUARED 0.232, read-out: LUCIFERASE INFECTION ASSAY - IC50): 10.6 µM
IC90: > 10.7 µM

Cc1cccc(/C=C(/C(=O)NCc2ccc(NC(=O)C(C)C)cc2)c2cccs2)c1
IC50 (PBLUC_HILL_SLOPE 14.7, PBLUC_R_SQUARED 0.598, read-out: LUCIFERASE INFECTION ASSAY - IC50): 3.95 µM
IC90: 4.58 µM

COc1ccc(OCC(O)CNCC23CC4CC(CC(C4)C2)C3)c(C(C)(C)C)c1 (configuration not stated)
IC50 (PBLUC_HILL_SLOPE 14.7, PBLUC_R_SQUARED 0.42, read-out: LUCIFERASE INFECTION ASSAY - IC50): 8.48 µM
IC90: 9.84 µM

Cc1ccc2nc(NC(=O)COCc3ccccc3)c(C(=O)NC3CCCC3)n2c1
IC50 (PBLUC_HILL_SLOPE 14.3, PBLUC_R_SQUARED 0.563, read-out: LUCIFERASE INFECTION ASSAY - IC50): 7.54 µM
IC90: > 8.12 µM

CNc1nc2cnc(-c3ccc(OC)cc3C)cc2n1Cc1ccc(OC)c(OC)c1
IC50 (PBLUC_HILL_SLOPE 14.3, PBLUC_R_SQUARED 0.611, read-out: LUCIFERASE INFECTION ASSAY - IC50): 1.04 µM
IC90: 1.22 µM

CCOc1cccc(-c2cn3c(-c4ccc(C(=O)N(C)C)cc4)cnc3cn2)c1
IC50 (PBLUC_HILL_SLOPE 14.8, PBLUC_R_SQUARED 0.204, read-out: LUCIFERASE INFECTION ASSAY - IC50): 2.92 µM
IC90: 3.39 µM

CCCn1c(NC(=O)c2cccnc2SC)nc2ccccc21
IC50 (PBLUC_HILL_SLOPE 14.8, PBLUC_R_SQUARED 0.146, read-out: LUCIFERASE INFECTION ASSAY - IC50): 9.22 µM
IC90: > 10 µM

COc1cc(-c2ccnc3n[nH]c(-c4ccc(N(C)C)cc4)c23)cc(OC)c1OC
IC50 (PBLUC_HILL_SLOPE 14.6, PBLUC_R_SQUARED 0.557, read-out: LUCIFERASE INFECTION ASSAY - IC50): 3.12 µM
IC90: 3.63 µM

Cc1nn(-c2ccccc2C(F)(F)F)c2nc(-c3ccccc3)cc(C(=O)N3CCCC(C)C3)c12 (configuration not stated)
IC50 (PBLUC_HILL_SLOPE 14.7, PBLUC_R_SQUARED 0.435, read-out: LUCIFERASE INFECTION ASSAY - IC50): 9.53 µM
IC90: > 10 µM

COc1ccc(O)c(C(=O)NNC(=O)C23CC4CC(CC(C4)C2)C3)c1
IC50 (PBLUC_HILL_SLOPE 14.2, PBLUC_R_SQUARED 0.249, read-out: LUCIFERASE INFECTION ASSAY - IC50): 8.74 µM
IC90: > 10 µM

CC(C)(C)c1ccc(C(=O)NNC(=S)Nc2ccc(Cl)cc2)cc1
IC50 (PBLUC_HILL_SLOPE 14.6, PBLUC_R_SQUARED 0.46, read-out: LUCIFERASE INFECTION ASSAY - IC50): 7.71 µM
IC90: 8.97 µM

O=C(NCCSCc1csc2ccc(Cl)cc12)Nc1ccccc1
IC50 (PBLUC_HILL_SLOPE 14.3, PBLUC_R_SQUARED 0.456, read-out: LUCIFERASE INFECTION ASSAY - IC50): 8.24 µM
IC90: > 8.75 µM

CCCCn1c(N)c(N(CCC)C(=O)/C=C/c2cccc3cccnc23)c(=O)[nH]c1=O
IC50 (PBLUC_HILL_SLOPE 14.7, PBLUC_R_SQUARED 0.526, read-out: LUCIFERASE INFECTION ASSAY - IC50): 3.18 µM
IC90: 3.69 µM

COc1ccc(-n2c(C)cc(/C=C(\C#N)C(=O)NCc3nnc4ccccn34)c2C)cc1
IC50 (PBLUC_HILL_SLOPE 14.5, PBLUC_R_SQUARED 0.61, read-out: LUCIFERASE INFECTION ASSAY - IC50): 7.88 µM
IC90: 9.17 µM

CC(C)COc1ccc(NC(=O)c2ccnn2C)cc1Cl
IC50 (PBLUC_HILL_SLOPE 14.7, PBLUC_R_SQUARED 0.488, read-out: LUCIFERASE INFECTION ASSAY - IC50): 9.12 µM
IC90: > 10 µM

O=C(c1ccc(Cn2cccn2)cc1)N(C/C=C/c1ccccc1)c1ccc2c(c1)OCCO2
IC50 (PBLUC_HILL_SLOPE 14.4, PBLUC_R_SQUARED 0.81, read-out: LUCIFERASE INFECTION ASSAY - IC50): 4.37 µM
IC90: 5.09 µM

Cc1cc(C)n(-c2cc(N3CCN(C)CC3)nc(-c3ccccc3)n2)n1
IC50 (PBLUC_HILL_SLOPE 14.6, PBLUC_R_SQUARED 0.207, read-out: LUCIFERASE INFECTION ASSAY - IC50): 8.77 µM
IC90: > 9.47 µM

COc1ccc(CCN2C(=O)N(C(C)C)C(=O)C23CCN(Cc2ccc(Cl)cc2)CC3)cc1
IC50 (PBLUC_HILL_SLOPE 14.8, PBLUC_R_SQUARED 0.317, read-out: LUCIFERASE INFECTION ASSAY - IC50): 6.11 µM
IC90: > 7.02 µM

COCCOc1ccc(C(F)(F)F)cc1NC(=O)c1ccc(SCc2cscn2)cc1
IC50 (PBLUC_HILL_SLOPE 14.5, PBLUC_R_SQUARED 0.0793, read-out: LUCIFERASE INFECTION ASSAY - IC50): 8.84 µM
IC90: > 10 µM

Cn1c(N)c(C(=O)COC(=O)c2ccccc2-c2nc3ccccc3s2)c(=O)n(C)c1=O
IC50 [1]: 9.26 µM
IC90: > 10 µM

Cc1cc(NCc2c(F)cccc2Cl)ccc1N1CCCC1=O
IC50 (PBLUC_HILL_SLOPE 14.5, PBLUC_R_SQUARED 0.0625, read-out: LUCIFERASE INFECTION ASSAY - IC50): 9.88 µM
IC90: > 10 µM

N#C/C=C/C=C/c1nnn(-c2ccc(Cl)cc2)n1
IC50 (PBLUC_HILL_SLOPE 14.5, PBLUC_R_SQUARED 0.28, read-out: LUCIFERASE INFECTION ASSAY - IC50): 10.9 µM
IC90: 12.6 µM

CC(=O)Nc1ccc(NC(=O)/C(C#N)=C/c2c(Cl)cccc2Cl)cc1
IC50 (PBLUC_HILL_SLOPE 14.2, PBLUC_R_SQUARED 0.281, read-out: LUCIFERASE INFECTION ASSAY - IC50): 9.36 µM
IC90: > 10 µM

Cc1ccccc1-c1cnc2cnc(-c3ccc(CNc4ccccc4)cc3)cn12
IC50 (PBLUC_HILL_SLOPE 14.2, PBLUC_R_SQUARED 0.506, read-out: LUCIFERASE INFECTION ASSAY - IC50): 8.05 µM
IC90: > 8.45 µM

CCn1c(NC(=O)CCc2ccc3c(c2)OCCO3)nc2ccccc21
IC50 (PBLUC_HILL_SLOPE 14.7, PBLUC_R_SQUARED 0.597, read-out: LUCIFERASE INFECTION ASSAY - IC50): 9.02 µM
IC90: > 10 µM

CC(C)(C)c1ccc2nc(/C(=C\c3ccc(F)cc3)NC(=O)c3ccccc3)[nH]c2c1
IC50 (PBLUC_HILL_SLOPE 14.3, PBLUC_R_SQUARED 0.247, read-out: LUCIFERASE INFECTION ASSAY - IC50): 6.92 µM
IC90: > 7.98 µM

CNc1nc2cnc(-c3ccc(F)cc3)cc2n1Cc1ccc(OC)c(OC)c1
IC50 (PBLUC_HILL_SLOPE 14.4, PBLUC_R_SQUARED 0.339, read-out: LUCIFERASE INFECTION ASSAY - IC50): 3.41 µM
IC90: 3.97 µM

Oc1ccccc1-c1cc(-c2ccccc2)nn1Cc1ccccc1
IC50 (PBLUC_HILL_SLOPE 14.4, PBLUC_R_SQUARED 0.373, read-out: LUCIFERASE INFECTION ASSAY - IC50): 3.37 µM
IC90: 3.93 µM

From ChEMBL document CHEMBL4483862, “Open-source discovery of chemical leads for next-generation chemoprotective antimalarials” (2018)
